Results taken from PubChem BioAssay (NCI).
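Compound exposure: 48 hours, 5 concentrations, 96-well plates. The concentration for 50% growth inhibition is given as GI50. TGI: concentration producing complete growth inhibition.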

Key:
Test in all cases: NCI anticancer screen, dose series, 48 h
A498 renal = tested on: A498 renal
SK-MEL-2 melanoma = tested on: SK-MEL-2 melanoma
PC-3 prostate = tested on: PC-3 prostate
BT-549 breast = tested on: BT-549 breast
SK-MEL-28 melanoma = tested on: SK-MEL-28 melanoma
OVCAR-3 ovarian = tested on: OVCAR-3 ovarian
COLO 205 colon = tested on: COLO 205 colon
T-47D breast = tested on: T-47D breast
SF-268 CNS = tested on: SF-268 CNS
EKVX NSCLC = tested on: EKVX NSCLC

SMILES	TGI (A498 renal) [µM]	TGI (SK-MEL-2 melanoma) [µM]	TGI (PC-3 prostate) [µM]	TGI (BT-549 breast) [µM]	TGI (SK-MEL-28 melanoma) [µM]	TGI (OVCAR-3 ovarian) [µM]	TGI (COLO 205 colon) [µM]	TGI (T-47D breast) [µM]	TGI (SF-268 CNS) [µM]	TGI (EKVX NSCLC) [µM]	GI50 (A498 renal) [µM]	GI50 (SK-MEL-2 melanoma) [µM]	GI50 (PC-3 prostate) [µM]	GI50 (BT-549 breast) [µM]	GI50 (SK-MEL-28 melanoma) [µM]	GI50 (OVCAR-3 ovarian) [µM]	GI50 (COLO 205 colon) [µM]	GI50 (T-47D breast) [µM]	GI50 (SF-268 CNS) [µM]	GI50 (EKVX NSCLC) [µM]
CC1(C)N=C(N)N=C(N)N1c1cccc(Cl)c1	> 100	> 100	> 100	> 100	> 100	> 100	> 100	> 100	> 100	> 100										
CC(=N/NC(=S)N(C)C)/C(=N\NC(=S)N(C)C)c1ccccc1	3.12	4.69	4.64	4.63	4.03	3.68	3.33	3.54	4.84	3.56										
CSc1nc(Cl)c2c(n1)Sc1nc3ccccc3n1C2O (stereo not given)	> 100	> 47.4	> 100	> 84.4	> 100	> 26.5	> 21.6	> 100	55	> 100										
OC(CC(O)(C(F)(F)Cl)C(F)(F)Cl)c1ccccc1 (stereo not given)	0.0548	> 10	> 10	> 10	> 10	> 10	> 10	> 10	> 10	> 10										
NCCCCNCCCN1CCOC1=O	> 100	> 100	> 100	> 100	> 100	> 100	> 100	> 100	> 100	> 100										
CO[P@@]1(=O)O[C@@H](c2ccccc2)[C@H](O)[C@]1(O)c1ccccc1	> 100	> 100	> 100	> 100	> 100	> 100	> 100	> 100	> 100	60.4										
Cc1cc(-c2cc(C(C)(C)C)c(O)c(C(C)(C)C)c2)c(C)cc1-c1cc(C(C)(C)C)c(O)c(C(C)(C)C)c1	92.7	> 100	> 100	> 100	> 100	> 100	> 100	> 100	> 100	> 100										
C[C@H]1[C@H](C)CC[C@]2(C(=O)OC3OC(CO)C(O)C(O)C3O)CC[C@]3(C)C(=CC[C@@H]4[C@@]5(C)C[C@@H](O)[C@@H]6OC(=O)c7cc(O)c(O)c(O)c7-c7c(cc(O)c(O)c7O)C(=O)OC[C@@]6(CO)[C@@H]5CC[C@]43C)[C@H]12 (stereo not given in full)	> 100	> 100	> 100	> 100	> 100	> 91.4	> 100	> 100	> 100	> 100										
O=C1C=CC(=O)c2c(O)c(N3CCC[C@@H]3CO)c(Cl)c(O)c21	6.96	3.15	4.78	3.7	3.24	3.08	2.88	4.27	1.74	3.55										
CN(C)CCNCCCNc1c2ccccc2nc2cccc([N+](=O)[O-])c12	0.0588	0.0523	0.0609	0.624	0.442	0.0466	0.0245	0.0899	0.105	0.0617										
C=C1[C@@H]2CCC3[C@]4(C)C(CC[C@@]5(C)C(=O)O[C@H](O)[C@@H]45)[C@H](O)[C@]3(C2)[C@H]1OC1OC(CO)C(O)C(O)C1O (stereo not given in full)	> 50	> 50	> 50	> 50	> 50	> 50	> 50	> 50	> 50	> 50										
CC(C)=CCC[C@@H](C)C1=C(Nc2ccccc2F)C(O)=C(C)C(=O)C1=O	> 43.9	42.1	> 100	> 100	> 64.3	> 100	12.4	64.1	> 100	> 100										
C[As+](C)(c1ccc(Br)c([N+](=O)[O-])c1)c1ccc(Br)c([N+](=O)[O-])c1.O=[N+]([O-])O	> 100	> 100	> 100	> 100	76.8	> 100	> 100	> 100	> 100	> 100										
Cc1cc(-c2ccccc2)nc2oc(=O)n(C)c12	> 100	> 100	> 100	> 100	> 100	> 100	> 100	> 100	> 100	> 100										
CCOC(=O)c1c(SCc2cc(=O)[nH]c(=O)[nH]2)n(-c2ccccc2)c(=S)n(-c2ccccc2)c1=O	> 100	> 100	> 100	> 100	> 100	> 100	> 100	> 100	> 100	> 100										
NC(=O)C1CCN(Cc2c(Cl)c(Cl)c(CN3CCC(C(N)=O)CC3)c(Cl)c2Cl)CC1	90.6	> 100	> 100	> 100	> 100	> 100	> 100	> 100	> 100	> 100										
Cc1c(C(=O)NNc2ccccc2)n2c(=S)[nH]nc2c2ccccc12	> 100	> 100	> 100	> 100	> 100	> 100	> 100	> 100	> 100	> 100										
CCn1ncc2c(=O)n3ncn(-c4ccc(Br)cc4)c3nc21	> 100	> 100	> 100	> 100	> 100	> 100	> 100	> 100	> 100	> 100										
COc1ccc2c(c1OC)C(=O)N1C2=Cc2c(cc3c(c2OC)OCO3)CC1N(C)C (stereo not given)	> 100	> 100	> 100	> 100	> 100	> 100	> 100	74.4	> 100	> 100										
CC1(C)OCC(C2OC(C)(C)OC2[C@H]2O[C@@]3(O)[C@H]4[C@H](C=CC[C@@H]42)[C@@H](OCc2ccccc2)[C@H](OCc2ccccc2)[C@H]3OCc2ccccc2)O1 (stereo not given in full)	> 100	98.5	> 100	> 100	> 100	> 100	> 100	> 100	> 100	> 100										
O=C([C@H](O)[C@@H](O)c1cccc(Cl)c1)C12CC3CC(CC(C3)C1)C2	5.46	4.24	4.05	3.74	12.6	4.37	4.23	4.21	4.04	4.38										
c1ccc2c(c1)cc1ccc3cccc4ccc2c1c34	> 100	> 100	> 100	> 100	> 100	> 100	> 100	> 100	> 100	> 100	> 100									
CCc1nc2c(c(N(C)C)c1C(=O)OC)CCc1ccccc1-2	75.3	39.5	40	> 100	> 100	35.4	41.8	58.1	> 100	> 100										
CCN(CC)CCCCNc1c2ccc(Cl)cc2nc2ccc(OC)cc12	2.52	3.31	2.74	3.77	3.2	2.99	1.32	4.54	3.33	3.98	1.21	1.15	0.482	1.85	1.71	0.501	0.24	1.22	0.797	0.608
CC1=C(C(=O)OCCO[N+](=O)[O-])C(c2ccccc2[N+](=O)[O-])C(C(=O)OC(C)C)=C(C)N1 (stereo not given)	46.2	30.5	23.2	30.4	30.4	27.9	29.7	46.8	47.1	53										
CCC1(CC)C(=O)N(C(=O)c2cc(OC)c(OC)c(OC)c2)N(C(=O)c2cc(OC)c(OC)c(OC)c2)C1=O	> 50	> 50	> 50	> 50	> 50	> 50	> 50	> 50	> 50	> 50										
O=c1c2cc([N+](=O)[O-])ccc2oc2nc3n(c(=O)c12)CCCS3	> 100	> 100	> 100	> 100	> 100	> 100	> 100	> 100	> 100	> 100										
O=C1c2cc3c(cc2-c2c1c1ccc(Cl)cc1c(=O)n2CCCn1ccnc1)OCO3		> 100	> 100	> 100	> 100	1.4	> 100	> 100	> 100	> 100	0.025	0.649	0.0438	0.0491	0.158	0.0396	0.0552	< 0.01	< 0.01	0.117
CSc1ccc(/C=C2\N=C(c3ccccc3)N(c3nc4cc(Cl)c(F)cc4s3)C2=O)cc1	> 100	50.4	> 100	> 100	> 100	60.1	> 100	> 100	> 100	> 100										
NC(=O)NN=C1Cc2ccccc2C1	> 100	> 100	> 100	> 100	> 100	> 100	> 100	> 100	> 100	> 100										
